ChEMBL document CHEMBL1201862, “PubChem BioAssay data set” (2004)
The source made the active and inactive calls.

Columns and labels:
[1] = reduction of Shn3 3'UTR-driven luciferase in osteoblasts – cell-based, Clone20 osteoblasts, firefly luciferase, cherry-picked, dose response (AID 624132); type: functional;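 further: firefly luciferase luminescence from reporter carrying the Shn3 3'UTR in osteoblasts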
[2] = THP-1 cell cytotoxicity, dose response, cytotoxicity control for non-replicating M. tuberculosis project (AID 489025); type: functional
[3] = Vero E6 cell cytotoxicity, dose response, cytotoxicity control for non-replicating M. tuberculosis project, secondary assay (AID 492998); type: functional, VeroE6; conditions: Vero C1008
[4] = non-specific 3'UTR reporter inhibition in Clone20-Shn3RL – cell-based, Renilla luciferase, cherry-picked, counter-screen for Shn3 inhibitor project, dose response (AID 624133); type: functional
[5] = target: Tumor necrosis factor (Homo sapiens, UniProt P01375); experiment: analog potency on TNFa NF-kB signaling – cell-based, revised, SAR follow-up (AID 2337); type: functional
Chain of Tumor necrosis factor (P01375 whole entry): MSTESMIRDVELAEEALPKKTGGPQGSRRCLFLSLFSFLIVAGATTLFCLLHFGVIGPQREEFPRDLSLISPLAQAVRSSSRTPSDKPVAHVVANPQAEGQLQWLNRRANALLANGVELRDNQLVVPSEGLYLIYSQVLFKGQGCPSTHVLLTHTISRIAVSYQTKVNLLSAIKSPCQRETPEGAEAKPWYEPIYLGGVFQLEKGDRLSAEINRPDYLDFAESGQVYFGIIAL

[6] = test system: Streptococcus; experiment: GAS UMAA2166 growth inhibition – luminescence, BacTiterGlo, counter-screen for streptokinase expression inhibitor project, dose response (AID 1915); type: functional, organism-based;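 further: potency for reduction of bacterial viability or growth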
[7] = HepG2 cell cytotoxicity, dose response, cytotoxicity control for non-replicating M. tuberculosis project (AID 489018); type: functional; conditions: Mycobacterium tuberculosis
[8] = A Cell Based Secondary Assay To Explore Cytotoxicity of Compounds that Sensitize Mycobacterium Tuberculosis to Beta-Lactam Antibiotics.; type: functional
[9] = test system: HEK293; experiment: cells; conditions: Homo sapiens;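 further: cells exposed to compound for 14 hours overnight before viability readout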
[10] = target: T1, Nucleotide-binding oligomerization domain-containing protein 1 (Homo sapiens, UniProt Q9Y239); experiment: blockers of NOD1 pathway activity – revised, SAR follow-up (AID 2333); type: functional
T1 sequence (Q9Y239 whole entry): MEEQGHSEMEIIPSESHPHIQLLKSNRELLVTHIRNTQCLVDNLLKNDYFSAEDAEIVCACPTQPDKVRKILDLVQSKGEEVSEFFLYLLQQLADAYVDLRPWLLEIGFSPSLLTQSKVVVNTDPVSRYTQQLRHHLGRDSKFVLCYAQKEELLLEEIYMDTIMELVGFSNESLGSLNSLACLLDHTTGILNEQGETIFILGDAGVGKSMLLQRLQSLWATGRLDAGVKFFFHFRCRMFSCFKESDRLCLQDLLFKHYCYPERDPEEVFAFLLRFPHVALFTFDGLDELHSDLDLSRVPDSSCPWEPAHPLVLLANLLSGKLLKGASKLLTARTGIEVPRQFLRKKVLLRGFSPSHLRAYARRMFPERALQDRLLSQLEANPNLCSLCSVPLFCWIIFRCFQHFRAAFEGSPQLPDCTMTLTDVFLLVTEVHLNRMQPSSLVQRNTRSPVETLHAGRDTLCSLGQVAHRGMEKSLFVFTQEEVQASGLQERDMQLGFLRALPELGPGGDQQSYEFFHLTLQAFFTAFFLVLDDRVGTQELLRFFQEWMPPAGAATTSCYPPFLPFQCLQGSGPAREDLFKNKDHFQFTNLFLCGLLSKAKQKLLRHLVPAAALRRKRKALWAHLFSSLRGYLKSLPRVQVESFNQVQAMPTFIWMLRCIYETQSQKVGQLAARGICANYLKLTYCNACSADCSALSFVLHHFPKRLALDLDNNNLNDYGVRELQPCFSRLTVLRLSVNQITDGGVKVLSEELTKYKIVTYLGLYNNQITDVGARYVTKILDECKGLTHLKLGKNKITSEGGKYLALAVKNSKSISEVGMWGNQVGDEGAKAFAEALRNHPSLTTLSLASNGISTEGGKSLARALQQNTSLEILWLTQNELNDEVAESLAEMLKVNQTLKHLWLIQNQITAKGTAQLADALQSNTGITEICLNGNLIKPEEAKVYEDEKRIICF

[11] = loss of viability in HepG2 cells – cell-based, CellTiter-Glo, cherry-picked, cytotoxicity control for Shn3 inhibitor project, dose response (AID 624134); type: functional
[12] = target: T2, Microphthalmia-associated transcription factor (Homo sapiens, UniProt O75030); experiment: reducers of TRPM1 reporter luminescence, concentration series – cell-based, SK-MEL-5, cherry-picked, set 3, MITF inhibitor project, dose response (AID 493073); type: functional;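 further: SK-MEL-5 melanoma cells with luciferase driven by the MITF target TRPM1 promoter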
T2 sequence (O75030 whole entry): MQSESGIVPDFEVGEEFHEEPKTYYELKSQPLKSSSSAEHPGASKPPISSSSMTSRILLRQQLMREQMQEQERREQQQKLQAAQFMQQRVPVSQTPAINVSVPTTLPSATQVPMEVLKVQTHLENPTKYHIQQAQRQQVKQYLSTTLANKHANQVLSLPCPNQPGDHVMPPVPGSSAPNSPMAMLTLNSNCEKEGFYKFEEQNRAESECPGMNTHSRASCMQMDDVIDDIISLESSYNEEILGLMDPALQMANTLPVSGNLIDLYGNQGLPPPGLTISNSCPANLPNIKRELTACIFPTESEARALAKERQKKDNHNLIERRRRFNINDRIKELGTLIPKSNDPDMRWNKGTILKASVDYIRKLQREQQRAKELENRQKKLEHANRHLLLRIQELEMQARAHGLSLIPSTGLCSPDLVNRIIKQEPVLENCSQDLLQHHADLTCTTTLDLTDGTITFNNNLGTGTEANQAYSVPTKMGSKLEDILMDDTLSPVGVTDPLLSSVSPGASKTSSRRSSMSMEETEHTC

[13] = cells; type: functional
[14] = test system: Streptococcus sp. 'group A'; experiment: Streptococcus pyogenes SK(-)GAS viability under kanamycin – luminescence, BacTiterGlo, confirmation, counter-screen for streptokinase expression inhibitor project, dose response (AID 1900); type: functional, organism-based
[15] = target: T3, Mannose-6-phosphate isomerase (Homo sapiens, UniProt P34949); experiment: phosphomannose isomerase inhibition – biochemical, fluorescence intensity, confirmation (AID 1535)
T3 sequence (P34949 whole entry): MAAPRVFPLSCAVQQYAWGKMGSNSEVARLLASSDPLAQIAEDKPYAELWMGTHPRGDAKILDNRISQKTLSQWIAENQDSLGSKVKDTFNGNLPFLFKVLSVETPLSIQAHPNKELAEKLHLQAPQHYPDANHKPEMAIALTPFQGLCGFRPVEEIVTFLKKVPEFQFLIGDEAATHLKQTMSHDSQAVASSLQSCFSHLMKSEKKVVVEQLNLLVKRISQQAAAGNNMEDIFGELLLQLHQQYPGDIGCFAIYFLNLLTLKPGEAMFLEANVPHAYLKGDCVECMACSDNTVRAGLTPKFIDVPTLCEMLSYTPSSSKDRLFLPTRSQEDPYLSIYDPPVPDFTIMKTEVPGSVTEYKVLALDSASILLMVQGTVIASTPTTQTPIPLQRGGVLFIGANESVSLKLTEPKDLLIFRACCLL

[16] = target: Phosphomannomutase 2 (Homo sapiens, UniProt O15305); experiment: Counter screen SAR assay for PMM2 inhibitors via a fluorescence intensity assay. [Related pubchem assays (depositor defined):AID1545, AID1574]
Chain of Phosphomannomutase 2 (O15305 whole entry): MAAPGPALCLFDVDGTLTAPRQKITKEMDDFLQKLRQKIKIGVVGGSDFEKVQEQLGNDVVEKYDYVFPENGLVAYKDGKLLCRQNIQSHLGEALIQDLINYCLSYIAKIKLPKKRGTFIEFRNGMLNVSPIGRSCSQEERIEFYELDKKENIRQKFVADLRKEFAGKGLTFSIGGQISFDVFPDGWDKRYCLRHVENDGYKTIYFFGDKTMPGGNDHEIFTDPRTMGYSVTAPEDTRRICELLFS

[17] = target: Cytochrome P450 2D6 (Homo sapiens, UniProt P10635);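 further: CYP2D6 member of a cytochrome P450 panel assay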
Chain of Cytochrome P450 2D6 (P10635 whole entry): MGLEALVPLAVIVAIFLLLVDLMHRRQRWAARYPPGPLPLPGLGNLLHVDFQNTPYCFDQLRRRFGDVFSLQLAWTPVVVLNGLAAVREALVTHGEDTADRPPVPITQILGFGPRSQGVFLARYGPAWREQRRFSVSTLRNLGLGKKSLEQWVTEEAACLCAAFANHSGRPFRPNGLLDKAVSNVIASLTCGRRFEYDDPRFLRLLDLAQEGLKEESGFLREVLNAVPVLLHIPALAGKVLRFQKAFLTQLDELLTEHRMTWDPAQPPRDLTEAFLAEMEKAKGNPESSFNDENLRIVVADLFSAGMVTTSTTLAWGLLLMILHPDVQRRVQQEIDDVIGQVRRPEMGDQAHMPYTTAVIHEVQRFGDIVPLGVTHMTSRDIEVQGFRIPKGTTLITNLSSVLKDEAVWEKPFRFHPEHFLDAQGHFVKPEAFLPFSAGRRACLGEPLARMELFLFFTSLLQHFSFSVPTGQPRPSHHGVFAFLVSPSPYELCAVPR

[18] = target: T4, Voltage-gated N-type calcium channel alpha-1B subunit/Amyloid beta A4 precursor protein-binding family A member 1 (Homo sapiens, UniProt Q00975+Q02410); type: protein assay
T4 sequence (Q00975 whole entry): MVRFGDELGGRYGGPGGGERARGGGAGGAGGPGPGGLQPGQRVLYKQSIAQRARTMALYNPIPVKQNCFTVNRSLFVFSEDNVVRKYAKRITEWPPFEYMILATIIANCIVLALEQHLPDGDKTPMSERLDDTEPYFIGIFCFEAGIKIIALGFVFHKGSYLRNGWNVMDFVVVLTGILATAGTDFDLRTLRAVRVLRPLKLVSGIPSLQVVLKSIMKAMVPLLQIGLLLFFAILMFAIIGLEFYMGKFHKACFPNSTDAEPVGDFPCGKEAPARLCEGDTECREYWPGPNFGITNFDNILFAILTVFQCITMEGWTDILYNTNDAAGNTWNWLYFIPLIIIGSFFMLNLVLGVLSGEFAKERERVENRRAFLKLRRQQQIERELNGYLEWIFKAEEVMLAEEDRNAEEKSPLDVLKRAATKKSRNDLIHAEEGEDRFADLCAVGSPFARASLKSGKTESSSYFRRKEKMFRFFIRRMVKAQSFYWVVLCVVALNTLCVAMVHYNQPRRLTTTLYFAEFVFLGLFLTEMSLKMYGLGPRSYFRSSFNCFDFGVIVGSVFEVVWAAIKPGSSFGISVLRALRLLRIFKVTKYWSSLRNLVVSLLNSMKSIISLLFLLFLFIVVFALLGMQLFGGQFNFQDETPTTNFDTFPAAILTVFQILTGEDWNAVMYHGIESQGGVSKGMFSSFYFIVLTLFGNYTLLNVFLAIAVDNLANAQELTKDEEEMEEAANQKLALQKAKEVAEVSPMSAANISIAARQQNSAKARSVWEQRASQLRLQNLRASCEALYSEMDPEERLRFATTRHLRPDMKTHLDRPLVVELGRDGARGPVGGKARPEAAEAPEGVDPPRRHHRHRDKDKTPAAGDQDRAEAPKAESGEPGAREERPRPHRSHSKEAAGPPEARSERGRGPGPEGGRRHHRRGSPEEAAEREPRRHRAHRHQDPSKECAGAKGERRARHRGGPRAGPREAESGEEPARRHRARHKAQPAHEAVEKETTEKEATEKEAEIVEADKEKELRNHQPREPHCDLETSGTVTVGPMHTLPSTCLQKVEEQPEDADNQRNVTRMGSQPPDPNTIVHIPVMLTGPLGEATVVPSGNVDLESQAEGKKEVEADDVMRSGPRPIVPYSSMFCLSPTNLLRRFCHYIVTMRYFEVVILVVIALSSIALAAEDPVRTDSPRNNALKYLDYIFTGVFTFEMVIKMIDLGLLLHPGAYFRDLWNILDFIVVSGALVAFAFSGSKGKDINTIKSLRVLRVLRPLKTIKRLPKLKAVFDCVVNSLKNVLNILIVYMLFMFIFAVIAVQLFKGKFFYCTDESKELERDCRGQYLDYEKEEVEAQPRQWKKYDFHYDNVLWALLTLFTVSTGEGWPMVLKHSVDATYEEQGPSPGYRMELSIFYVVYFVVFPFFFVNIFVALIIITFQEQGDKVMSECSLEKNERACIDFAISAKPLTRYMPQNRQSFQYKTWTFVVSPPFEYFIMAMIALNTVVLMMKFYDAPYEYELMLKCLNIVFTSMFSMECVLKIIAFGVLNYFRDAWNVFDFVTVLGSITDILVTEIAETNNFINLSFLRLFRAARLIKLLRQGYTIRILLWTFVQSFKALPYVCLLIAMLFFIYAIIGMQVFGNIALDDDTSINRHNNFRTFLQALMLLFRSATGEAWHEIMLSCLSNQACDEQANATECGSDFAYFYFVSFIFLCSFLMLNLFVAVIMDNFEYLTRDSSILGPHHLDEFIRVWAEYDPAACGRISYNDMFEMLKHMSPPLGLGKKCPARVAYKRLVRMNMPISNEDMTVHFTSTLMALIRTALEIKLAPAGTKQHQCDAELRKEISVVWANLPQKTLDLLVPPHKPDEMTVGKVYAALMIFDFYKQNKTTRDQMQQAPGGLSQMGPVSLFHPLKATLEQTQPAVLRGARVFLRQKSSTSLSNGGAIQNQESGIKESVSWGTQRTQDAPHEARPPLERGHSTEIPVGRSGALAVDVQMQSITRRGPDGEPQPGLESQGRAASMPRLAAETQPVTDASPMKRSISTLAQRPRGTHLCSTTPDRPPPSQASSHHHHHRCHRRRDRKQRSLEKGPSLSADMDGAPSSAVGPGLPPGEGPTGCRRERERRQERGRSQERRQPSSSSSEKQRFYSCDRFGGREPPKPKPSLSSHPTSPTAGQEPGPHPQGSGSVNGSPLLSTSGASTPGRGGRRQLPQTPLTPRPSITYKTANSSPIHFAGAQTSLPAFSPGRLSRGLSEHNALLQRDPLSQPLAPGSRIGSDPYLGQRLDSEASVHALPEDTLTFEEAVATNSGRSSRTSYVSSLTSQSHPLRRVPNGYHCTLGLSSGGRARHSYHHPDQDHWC
T4 sequence (Q02410 whole entry): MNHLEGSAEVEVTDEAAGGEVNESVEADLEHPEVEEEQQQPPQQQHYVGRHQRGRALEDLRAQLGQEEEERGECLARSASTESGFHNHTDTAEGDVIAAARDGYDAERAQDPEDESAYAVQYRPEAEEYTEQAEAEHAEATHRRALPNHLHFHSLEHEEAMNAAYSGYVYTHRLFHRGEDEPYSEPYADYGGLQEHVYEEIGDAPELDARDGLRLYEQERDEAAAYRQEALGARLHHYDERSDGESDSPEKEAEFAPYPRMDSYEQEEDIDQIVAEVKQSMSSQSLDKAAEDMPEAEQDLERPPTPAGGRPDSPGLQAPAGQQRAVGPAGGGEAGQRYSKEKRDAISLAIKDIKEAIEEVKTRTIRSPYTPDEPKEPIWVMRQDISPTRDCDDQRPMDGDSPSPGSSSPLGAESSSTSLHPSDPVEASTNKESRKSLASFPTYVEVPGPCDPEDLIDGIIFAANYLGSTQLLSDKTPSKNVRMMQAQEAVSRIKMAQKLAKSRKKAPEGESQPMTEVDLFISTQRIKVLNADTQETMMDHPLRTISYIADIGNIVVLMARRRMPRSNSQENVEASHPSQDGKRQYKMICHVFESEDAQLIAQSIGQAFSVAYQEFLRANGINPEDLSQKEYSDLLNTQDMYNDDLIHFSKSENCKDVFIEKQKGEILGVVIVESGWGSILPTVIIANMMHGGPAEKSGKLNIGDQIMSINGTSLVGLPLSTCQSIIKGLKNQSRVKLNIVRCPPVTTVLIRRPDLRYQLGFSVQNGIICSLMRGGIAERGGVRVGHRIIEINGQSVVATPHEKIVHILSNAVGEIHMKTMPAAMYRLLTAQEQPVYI

[19] = target: Kallikrein-7 (Homo sapiens, UniProt P49862); experiment: Fluorescence Intensity-based biochemical primary high throughput dose response assay to identify activators of kallikrein-7 (K7) zymogen.
Chain of Kallikrein-7 (P49862 whole entry): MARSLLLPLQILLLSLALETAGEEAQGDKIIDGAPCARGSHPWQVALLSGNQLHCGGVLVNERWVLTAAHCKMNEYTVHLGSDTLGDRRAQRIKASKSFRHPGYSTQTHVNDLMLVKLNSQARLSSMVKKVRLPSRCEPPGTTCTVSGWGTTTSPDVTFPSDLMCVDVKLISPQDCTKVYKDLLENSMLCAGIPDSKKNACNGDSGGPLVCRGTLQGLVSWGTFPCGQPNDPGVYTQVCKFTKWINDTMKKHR

[20] = target: T4, Voltage-gated N-type calcium channel alpha-1B subunit/Amyloid beta A4 precursor protein-binding family A member 1; experiment: disruptors of Mint-PDZ/N-type channel peptide interaction – biochemical, HTRF, SAR follow-up (AID 2489); type: functional
[21] = target: SUMO E1/E2 (Homo sapiens, UniProt P63279+Q9UBE0+Q9UBT2); experiment: SAR analysis of SUMOylation using HTRF in an in-Vitro dose response assay. [Related pubchem assays (depositor defined):AID2006, AID2011, AID2018, AID2069, AID2658]; type: functional
[22] = target: T4, Voltage-gated N-type calcium channel alpha-1B subunit/Amyloid beta A4 precursor protein-binding family A member 1; experiment: disruptors of Mint-PDZ/N-type channel peptide interaction – biochemical, HTRF, set 2, SAR follow-up (AID 434980); type: functional
[23] = target: T4, Voltage-gated N-type calcium channel alpha-1B subunit/Amyloid beta A4 precursor protein-binding family A member 1; type: protein assay; remark: listed apart in the source
[24] = target: Induced myeloid leukemia cell differentiation protein Mcl-1 (Homo sapiens, UniProt Q07820); type: functional
Chain of Induced myeloid leukemia cell differentiation protein Mcl-1 (Q07820 whole entry): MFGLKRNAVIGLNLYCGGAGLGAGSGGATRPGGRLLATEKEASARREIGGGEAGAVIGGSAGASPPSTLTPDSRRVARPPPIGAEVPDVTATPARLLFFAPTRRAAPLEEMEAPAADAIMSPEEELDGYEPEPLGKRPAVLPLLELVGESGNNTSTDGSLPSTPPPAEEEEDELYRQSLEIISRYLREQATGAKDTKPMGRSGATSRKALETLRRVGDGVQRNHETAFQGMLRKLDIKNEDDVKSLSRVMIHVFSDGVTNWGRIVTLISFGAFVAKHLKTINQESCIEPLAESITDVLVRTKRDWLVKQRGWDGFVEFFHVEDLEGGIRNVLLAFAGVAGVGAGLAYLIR

[25] = target: Eukaryotic translation initiation factor 4E (Mus musculus, UniProt P63073); experiment: blockers of eIF4G binding by eIF4E – biochemical, TR-FRET, dose response (AID 855); type: functional;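 further: potency for disrupting eIF4E binding to eIF4GI seen as loss of FRET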
Chain of Eukaryotic translation initiation factor 4E (P63073 whole entry): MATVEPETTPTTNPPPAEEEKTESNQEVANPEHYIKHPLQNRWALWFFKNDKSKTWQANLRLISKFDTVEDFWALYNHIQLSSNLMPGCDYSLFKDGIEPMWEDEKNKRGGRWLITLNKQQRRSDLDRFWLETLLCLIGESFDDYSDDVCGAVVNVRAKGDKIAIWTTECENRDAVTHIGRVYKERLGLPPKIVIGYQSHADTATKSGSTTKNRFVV

## CCCCCn1c(=O)c(C(=O)Nc2cnccn2)c(O)c2ccccc21
[1]
  AC50: 1.54 µM (active)
[2]
  CC50: 5.17 µM (active)
[3]
  CC50: 4.02 µM (active)
[4]
  AC50: 3.1 µM (active)
[5]
  IC50: > 20 µM (inactive)
[6]
  EC50: 5.32 µM (active)
[7]
  CC50: 13.5 µM (active)
[8]
  CC50: 2.4 µM (active)
[9]
  IC50: > 20 µM (inactive)
[10]
  IC50: 11.3 µM (active)
[11]
  AC50: > 70 µM (inactive)
[12]
  AC50: 5.93 µM (active)
[13]
  IC50: 3.04 µM (active)
[14]
  EC50: 3.24 µM (active)

## Cc1cc2n(n1)SC(Nc1ccccc1)N2 (stereo not given)
[15]
  IC50: > 50 µM (inactive)
[16]
  IC50: > 100 µM (inactive)

## N/C(CC/C(N)=N/O)=N\O
[17]
  AC50: inconclusive

## CCN(CC)C(=O)COC(=O)c1cc(-c2ccco2)nc2ccccc12
[18]
  IC50: 4.92 µM (active)
[19]
  EC50: 23 µM (inactive)
[20]
  IC50: 13.9 µM (active)
[21]
  IC50: 2.71 µM (active)
[22]
  IC50: 19.2 µM (active)
[23]
  IC50: 12.7 µM (active)
[24]
  IC50: 3.26 µM (active)
[25]
  IC50: 50 µM (inactive)
